Measurements reported in patent US20090298820A1, “3-SUBSTITUTED-1H-PYRROLO[2,3-B]PYRIDINE AND 3-SUBSTITUTED-1H-PYRROLO[3,2-B]PYRIDINE COMPOUNDS, THEIR USE AS MTOR KINASE AND PI3 KINASE INHIBITORS, AND THEIR SYNTHESES” (Wyeth, priority 2008, published 2009).
Where two headings read alike, the source gives them in different places.

Legend:
Type in all cases: biochemical
PI3Kγ = PI3Kγ (Homo sapiens, UniProt P48736); test: PI3K-gamma fluorescence polarization assay; settings: read-out: PI3Kγ Median IC50
PI3Kγ, sequence (P48736 whole entry, species assumed): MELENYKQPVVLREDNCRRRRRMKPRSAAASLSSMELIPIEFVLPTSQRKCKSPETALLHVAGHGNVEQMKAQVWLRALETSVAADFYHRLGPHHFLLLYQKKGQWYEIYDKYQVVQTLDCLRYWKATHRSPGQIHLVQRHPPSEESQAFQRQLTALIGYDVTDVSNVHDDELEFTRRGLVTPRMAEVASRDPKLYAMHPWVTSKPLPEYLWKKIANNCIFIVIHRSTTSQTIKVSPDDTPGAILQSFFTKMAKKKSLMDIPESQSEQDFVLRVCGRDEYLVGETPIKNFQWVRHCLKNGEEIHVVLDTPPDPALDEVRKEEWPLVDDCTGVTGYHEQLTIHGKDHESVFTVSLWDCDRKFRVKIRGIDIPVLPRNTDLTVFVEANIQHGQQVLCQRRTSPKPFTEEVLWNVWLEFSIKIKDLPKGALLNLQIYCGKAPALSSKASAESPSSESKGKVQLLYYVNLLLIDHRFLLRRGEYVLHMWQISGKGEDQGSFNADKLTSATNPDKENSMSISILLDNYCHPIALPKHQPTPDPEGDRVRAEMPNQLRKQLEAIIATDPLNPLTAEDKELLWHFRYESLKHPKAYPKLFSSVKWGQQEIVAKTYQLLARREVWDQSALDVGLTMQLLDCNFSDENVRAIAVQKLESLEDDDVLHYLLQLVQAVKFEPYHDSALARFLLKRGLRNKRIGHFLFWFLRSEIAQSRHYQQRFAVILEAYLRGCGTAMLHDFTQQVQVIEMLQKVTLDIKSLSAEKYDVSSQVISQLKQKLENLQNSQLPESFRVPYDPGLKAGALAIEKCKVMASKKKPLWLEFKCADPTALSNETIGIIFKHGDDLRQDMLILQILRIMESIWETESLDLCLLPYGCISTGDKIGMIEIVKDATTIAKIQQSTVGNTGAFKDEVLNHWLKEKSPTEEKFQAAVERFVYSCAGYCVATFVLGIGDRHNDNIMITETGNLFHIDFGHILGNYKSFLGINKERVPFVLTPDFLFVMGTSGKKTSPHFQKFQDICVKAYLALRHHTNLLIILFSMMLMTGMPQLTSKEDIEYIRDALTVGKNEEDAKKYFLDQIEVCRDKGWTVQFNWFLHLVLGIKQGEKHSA

PI3Kα = PI3Kα (Homo sapiens, UniProt P42336); test: PI3K-alpha fluorescence polarization assay; settings: read-out: PI3Kα Median IC50
PI3Kα, sequence (P42336 whole entry, species assumed): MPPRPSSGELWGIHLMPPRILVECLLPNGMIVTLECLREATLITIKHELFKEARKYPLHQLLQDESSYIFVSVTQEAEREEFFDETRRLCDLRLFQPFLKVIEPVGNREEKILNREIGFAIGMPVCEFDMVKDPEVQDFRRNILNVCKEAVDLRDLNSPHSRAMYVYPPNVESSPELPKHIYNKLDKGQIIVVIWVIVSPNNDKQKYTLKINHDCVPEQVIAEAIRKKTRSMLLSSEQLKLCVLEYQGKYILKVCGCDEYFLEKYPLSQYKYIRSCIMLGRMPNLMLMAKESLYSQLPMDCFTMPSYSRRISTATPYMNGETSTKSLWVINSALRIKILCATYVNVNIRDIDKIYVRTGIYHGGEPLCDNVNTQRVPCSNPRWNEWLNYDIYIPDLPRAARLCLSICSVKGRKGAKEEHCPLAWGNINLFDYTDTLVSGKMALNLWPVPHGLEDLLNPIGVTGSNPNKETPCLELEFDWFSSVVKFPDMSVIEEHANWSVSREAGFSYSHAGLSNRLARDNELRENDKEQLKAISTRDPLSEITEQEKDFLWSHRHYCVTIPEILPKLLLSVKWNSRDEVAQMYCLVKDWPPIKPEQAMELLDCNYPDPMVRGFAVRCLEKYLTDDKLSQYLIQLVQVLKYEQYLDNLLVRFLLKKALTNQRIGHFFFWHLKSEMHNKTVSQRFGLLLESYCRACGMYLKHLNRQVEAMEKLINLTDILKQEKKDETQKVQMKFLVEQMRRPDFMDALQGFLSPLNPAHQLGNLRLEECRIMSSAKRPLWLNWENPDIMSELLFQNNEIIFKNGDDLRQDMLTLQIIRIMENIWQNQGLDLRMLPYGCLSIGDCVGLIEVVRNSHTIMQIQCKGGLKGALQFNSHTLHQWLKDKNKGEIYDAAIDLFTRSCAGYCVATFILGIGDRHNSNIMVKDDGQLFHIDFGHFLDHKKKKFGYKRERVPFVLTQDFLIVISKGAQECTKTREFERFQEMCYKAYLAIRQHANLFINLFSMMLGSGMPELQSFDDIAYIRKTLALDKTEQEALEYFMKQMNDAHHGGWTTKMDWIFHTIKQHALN
PI3Kα, sequence (P27986 whole entry partner, species assumed): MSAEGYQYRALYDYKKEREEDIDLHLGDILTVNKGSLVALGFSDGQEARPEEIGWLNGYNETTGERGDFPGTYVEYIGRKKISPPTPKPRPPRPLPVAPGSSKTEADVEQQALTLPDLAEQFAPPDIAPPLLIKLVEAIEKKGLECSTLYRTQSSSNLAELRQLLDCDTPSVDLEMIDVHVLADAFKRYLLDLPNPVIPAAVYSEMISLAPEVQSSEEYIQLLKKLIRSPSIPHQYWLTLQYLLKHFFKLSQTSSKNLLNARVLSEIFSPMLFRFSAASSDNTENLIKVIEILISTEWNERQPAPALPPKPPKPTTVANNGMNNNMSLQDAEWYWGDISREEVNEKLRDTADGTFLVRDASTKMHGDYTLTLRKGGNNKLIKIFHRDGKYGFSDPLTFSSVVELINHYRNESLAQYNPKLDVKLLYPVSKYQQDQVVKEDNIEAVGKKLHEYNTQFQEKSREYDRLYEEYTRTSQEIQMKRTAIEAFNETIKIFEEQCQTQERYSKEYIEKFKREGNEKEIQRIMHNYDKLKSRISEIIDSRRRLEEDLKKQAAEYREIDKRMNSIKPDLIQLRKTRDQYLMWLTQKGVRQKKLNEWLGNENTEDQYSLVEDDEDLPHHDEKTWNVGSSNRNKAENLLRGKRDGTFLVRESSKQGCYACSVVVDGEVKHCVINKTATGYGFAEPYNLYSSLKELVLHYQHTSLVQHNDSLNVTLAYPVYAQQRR

mTOR = mTOR (Homo sapiens, UniProt P42345); test: mTOR enzyme assay (DELFIA format, His6-S6K substrate)
[1] = read-out: mTOR Kinase Median IC50

| SMILES | IC50 (PI3Kγ) [nM] | IC50 (PI3Kα) [nM] | IC50 (mTOR; [1]) [nM] | IC50 (mTOR) [nM] |
| --- | --- | --- | --- | --- |
| Cn1cc(/C=C2\Oc3cc(O)cc(O)c3C2=O)c2c(-c3cccnc3)ccnc21 [Compound 33, (2Z)-4,6-dihydroxy-2-[(1-methyl-4-pyridin-3-yl-1H-pyrrolo[2,3-b]pyridin-3-yl)methylene]-1-benzofuran-3(2H)-one] | 38 | 8 | 0.6 | – |
| Cn1cc(/C=C2\Oc3ccc(NC(=O)Nc4cccnc4)cc3C2=O)c2c(N3CCC(C(=O)NCCO)CC3)ccnc21 [Compound 254, N-(2-hydroxyethyl)-1-{1-methyl-3-[(Z)-{3-oxo-5-[(pyridin-3-ylcarbamoyl)amino]-1-benzofuran-2(3H)-ylidene}methyl]-1H-pyrrolo[2,3-b]pyridin-4-yl}piperidine-4-carboxamide] | 1140 | 3330 | 4.2 | – |
| Cn1cc(/C=C2\Oc3cc(O)cc(O)c3C2=O)c2c(-c3ccc(O)cc3)ccnc21 [Compound 19, (2Z)-4,6-dihydroxy-2-{[4-(4-hydroxyphenyl)-1-methyl-1H-pyrrolo[2,3-b]pyridin-3-yl]methylene}-1-benzofuran-3(2H)-one] | 35 | 14 | 0.5 | – |
| COc1ccc(-c2ccnc3c2c(/C=C2\Oc4cc(O)cc(O)c4C2=O)cn3C)cc1S(=O)(=O)N1CCCC1 [Compound 89, (2Z)-4,6-dihydroxy-2-({4-[4-methoxy-3-(pyrrolidin-1-ylsulfonyl)phenyl]-1-methyl-1H-pyrrolo[2,3-b]pyridin-3-yl}methylene)-1-benzofuran-3(2H)-one] | 50 | 8 | 0.5 | – |
| Cn1cc(/C=C2\Oc3cc(O)cc(O)c3C2=O)c2c(/C=C/c3ccccc3)ccnc21 [Compound 51, (2Z)-4,6-dihydroxy-2-({1-methyl-4-[(E)-2-phenylvinyl]-1H-pyrrolo[2,3-b]pyridin-3-yl}methylene)-1-benzofuran-3(2H)-one] | 92 | 47 | 3.4 | – |
| COCCCN(C)C(=O)C1CCN(c2ccnc3c2c(C=C2Oc4ccc(NC(=O)Nc5cccnc5)cc4C2=O)cn3C)CC1 [Compound 199, N-(3-methoxypropyl)-N-methyl-1-[1-methyl-3-({3-oxo-5-[(pyridin-3-ylcarbamoyl)amino]-1-benzofuran-2(3H)-ylidene}methyl)-1H-pyrrolo[2,3-b]pyridin-4-yl]piperidine-4-carboxamide] | 2990 | 2240 | 12.5 | – |
| Cn1cc(/C=C2\Oc3cc(O)cc(O)c3C2=O)c2c(-c3ccc(N)cc3)ccnc21 [Compound 41, (2Z)-2-{[4-(4-aminophenyl)-1-methyl-1H-pyrrolo[2,3-b]pyridin-3-yl]methylene}-4,6-dihydroxy-1-benzofuran-3(2H)-one] | 141 | 24 | 0.4 | – |
| CN(C)C(=O)C1CCN(c2ccnc3c2c(/C=C2\Oc4ccc(NC(=O)Nc5ccc(CN6CCCCC6)cc5)cc4C2=O)cn3C)CC1 [Compound 216, N,N-dimethyl-1-(1-methyl-3-{(Z)-[3-oxo-5-({[4-(piperidin-1-ylmethyl)phenyl]carbamoyl}amino)-1-benzofuran-2(3H)-ylidene]methyl}-1H-pyrrolo[2,3-b]pyridin-4-yl)piperidine-4-carboxamide] | 231 | 613 | 30 | – |
| Cc1cccc(CN(C)C(=O)C2CCN(c3ccnc4c3c(/C=C3\Oc5ccc(NC(=O)Nc6cccnc6)cc5C3=O)cn4C)CC2)n1 [Compound 225, N-methyl-1-{1-methyl-3-[(Z)-{3-oxo-5-[(pyridin-3-ylcarbamoyl)amino]-1-benzofuran-2(3H)-ylidene}methyl]-1H-pyrrolo[2,3-b]pyridin-4-yl}-N-[(6-methylpyridin-2-yl)methyl]piperidine-4-carboxamide] | 1920 | 2320 | – | 49 |
| C#CCN(C)C(=O)C1CCN(c2ccnc3c2c(/C=C2\Oc4ccc(NC(=O)Nc5cccnc5)cc4C2=O)cn3C)CC1 [Compound 226, N-methyl-1-{1-methyl-3-[(Z)-{3-oxo-5-[(pyridin-3-ylcarbamoyl)amino]-1-benzofuran-2(3H)-ylidene}methyl]-1H-pyrrolo[2,3-b]pyridin-4-yl}-N-prop-2-yn-1-ylpiperidine-4-carboxamide] | 1140 | 921 | 22.5 | – |
| CN1CCN(c2ccc(NC(=O)Nc3ccc4c(c3)C(=O)/C(=C/c3cn(C)c5nccc(N6CC7CCC(C6)O7)c35)O4)cn2)CC1 [Compound 231, 1-[(2Z)-2-{[1-methyl-4-(8-oxa-3-azabicyclo[3.2.1]oct-3-yl)-1H-pyrrolo[2,3-b]pyridin-3-yl]methylidene}-3-oxo-2,3-dihydro-1-benzofuran-5-yl]-3-[6-(4-methylpiperazin-1-yl)pyridin-3-yl]urea] | > 10000 | 703 | 31.5 | – |
| Cn1c(-c2ccccc2)c(/C=C2\Oc3cc(O)cc(O)c3C2=O)c2cccnc21 [Compound 27, (2Z)-4,6-dihydroxy-2-[(1-methyl-2-phenyl-1H-pyrrolo[2,3-b]pyridin-3-yl)methylene]-1-benzofuran-3(2H)-one] | 4000 | 820 | 50 | – |
| COc1ccccc1-c1ccnc2c1c(/C=C1\Oc3cc(O)cc(O)c3C1=O)cn2C [Compound 14, (2Z)-4,6-dihydroxy-2-{[4-(2-methoxyphenyl)-1-methyl-1H-pyrrolo[2,3-b]pyridin-3-yl]methylene}-1-benzofuran-3(2H)-one] | 220 | 188 | 1.4 | – |

Continued, in another order:

| IC50 (PI3Kγ) [nM] | IC50 (PI3Kα) [nM] | IC50 (mTOR; [1]) [nM] | SMILES | IC50 (mTOR) [nM] |
| --- | --- | --- | --- | --- |
| 2500 | 253 | > 4000 | Cn1cc(/C=C2\Oc3ccc(NC(=O)Nc4cccnc4)cc3C2=O)c2c(C(=O)N3CCCCC3)ccnc21 [Compound 234, 1-[(2Z)-2-{[1-methyl-4-(piperidin-1-ylcarbonyl)-1H-pyrrolo[2,3-b]pyridin-3-yl]methylidene}-3-oxo-2,3-dihydro-1-benzofuran-5-yl]-3-pyridin-3-ylurea] | – |
| 157 | 273 | 26.5 | Cn1cc(/C=C2\Oc3cccc(O)c3C2=O)c2c(-c3cc4ccccc4o3)ccnc21 [Compound 85, (2Z)-2-{[4-(1-benzofuran-2-yl)-1-methyl-1H-pyrrolo[2,3-b]pyridin-3-yl]methylene}-4-hydroxy-1-benzofuran-3(2H)-one] | – |
| 270 | 167 | 2.8 | Cn1cc(/C=C2\Oc3cc(O)cc(O)c3C2=O)c2c(-c3ccccc3Cl)ccnc21 [Compound 12, (2Z)-2-{[4-(2-chlorophenyl)-1-methyl-1H-pyrrolo[2,3-b]pyridin-3-yl]methylene}-4,6-dihydroxy-1-benzofuran-3(2H)-one] | – |
| 1270 | 1850 | 23 | Cc1cc(CN(C)C(=O)C2CCN(c3ccnc4c3c(/C=C3\Oc5ccc(NC(=O)Nc6cccnc6)cc5C3=O)cn4C)CC2)ccn1 [Compound 223, N-methyl-1-{1-methyl-3-[(Z)-{3-oxo-5-[(pyridin-3-ylcarbamoyl)amino]-1-benzofuran-2(3H)-ylidene}methyl]-1H-pyrrolo[2,3-b]pyridin-4-yl}-N-[(2-methylpyridin-4-yl)methyl]piperidine-4-carboxamide] | – |
| 2540 | 2830 | 34 | Cc1cnccc1CN(C)C(=O)C1CCN(c2ccnc3c2c(/C=C2\Oc4ccc(NC(=O)Nc5cccnc5)cc4C2=O)cn3C)CC1 [Compound 222, N-methyl-1-{1-methyl-3-[(Z)-{3-oxo-5-[(pyridin-3-ylcarbamoyl)amino]-1-benzofuran-2(3H)-ylidene}methyl]-1H-pyrrolo[2,3-b]pyridin-4-yl}-N-[(3-methylpyridin-4-yl)methyl]piperidine-4-carboxamide] | – |
| 2120 | 274 | 26 | Cn1cc(/C=C2\Oc3ccc(NC(=O)Nc4ccc(F)nc4)cc3C2=O)c2c(N3CC4CCC(C3)O4)ccnc21 [Compound 298, 1-(6-fluoropyridin-3-yl)-3-[(2Z)-2-{[1-methyl-4-(8-oxa-3-azabicyclo[3.2.1]oct-3-yl)-1H-pyrrolo[2,3-b]pyridin-3-yl]methylidene}-3-oxo-2,3-dihydro-1-benzofuran-5-yl]urea] | – |
| > 10000 | 5900 | 4 | Cn1cc(C=C2Oc3ccc(NC(=O)Nc4cccnc4)cc3C2=O)c2c(N3CCC(C(=O)NCC(N)=O)CC3)ccnc21 [Compound 202, N-(2-amino-2-oxoethyl)-1-[1-methyl-3-({3-oxo-5-[(pyridin-3-ylcarbamoyl)amino]-1-benzofuran-2(3H)-ylidene}methyl)-1H-pyrrolo[2,3-b]pyridin-4-yl]piperidine-4-carboxamide] | – |
| 314 | 68 | 8.4 | CN(C)C(=O)C1CCN(c2ccnc3c2c(/C=C2\Oc4ccc(NC(=O)NC5CNC5)cc4C2=O)cn3C)CC1 [Compound 287, 1-{3-[(Z)-{5-[(azetidin-3-ylcarbamoyl)amino]-3-oxo-1-benzofuran-2(3H)-ylidene}methyl]-1-methyl-1H-pyrrolo[2,3-b]pyridin-4-yl}-N,N-dimethylpiperidine-4-carboxamide] | – |
| > 10000 | 1140 | 160 | Cn1cncc1CNC(=O)Nc1ccc2c(c1)C(=O)/C(=C/c1cn(C)c3nccc(N4CC5CCC(C4)O5)c13)O2 [Compound 232, 1-[(1-methyl-1H-imidazol-5-yl)methyl]-3-[(2Z)-2-{[1-methyl-4-(8-oxa-3-azabicyclo[3.2.1]oct-3-yl)-1H-pyrrolo[2,3-b]pyridin-3-yl]methylidene}-3-oxo-2,3-dihydro-1-benzofuran-5-yl]urea] | – |
| 980 | 391 | 35.5 | Cn1cc(/C=C2\Oc3ccc(Br)cc3C2=O)c2c(N3CC4CCC(C3)O4)ccnc21 [Compound 59, (2Z)-5-bromo-2-{[1-methyl-4-(8-oxa-3-azabicyclo[3.2.1]oct-3-yl)-1H-pyrrolo[2,3-b]pyridin-3-yl]methylene}-1-benzofuran-3(2H)-one] | – |
